Consider three molecules from patent publication US11000033B2, “Ketone or oxime compound, and herbicide” (NISSAN CHEMICAL CORPORATION, priority 2014, dated 2021).

Format in all cases: in vivo
In data set [1] the test system is Echinochloa oryzacola Vasing. The experiment in a line: Test Example 1: herbicidal activity, application before weed generation in submerged conditions (symbol A). The following applies: application herbicide amount 320 g/ha. The method in brief: (§1)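 Mixed weed seeds sown in alluvial soil under 4 cm of water, with rice seedlings at the 2.5-leaf stage added. Same-day treatment: emulsion diluted to a set herbicide amount onto the water. Three weeks at 25–30 °C, then graded on a six-step scale.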

The subject of data set [2] is Scirpus juncoides. Put plainly: Test Example 1: herbicidal activity, application before weed generation in submerged conditions (symbol B). The settings on record: application herbicide amount 320 g/ha. An outline of the steps: as §1
The subject of data set [3] is transplanted rice plant. The experiment in a line: Test Example 1: effect on crop, application before weed generation in submerged conditions (symbol a). The following applies: application herbicide amount 320 g/ha. An outline of the steps: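 Rice at 2.5 leaf stage transplanted into submerged soil (4 cm depth) sown with three weed species; herbicide applied before weed emergence.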

In data set [4] the test system is Monochoria vaginalis. The experiment in a line: Test Example 2: herbicidal activity, application during weed generation in submerged conditions (symbol C). The following applies: Table 23; application herbicide amount 320 g/ha; grade 0-5 by criteria of Test Example 1. An outline of the steps: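 Treatment timing was the one- to two-leaf stage, with diluted emulsifiable compound dropped onto the paddy water (depth 4 cm) over alluvial soil. All three species grew from a mixed sowing in a 25° C. to 30° C. greenhouse. Injury was judged by eye 3 weeks on.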

The subject of data set [5] is directly sowed rice plant. The experiment in a line: Test Example 3: effect on crop by foliage application, Wagner pot (symbol b). The settings on record: application herbicide amount 320 g/ha. An outline of the steps:
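Alluvial soil in a 1/10000-are Wagner pot was flooded to a water depth of 0.1–0.5 cm. Echinochloa crus-galli var. crus-galli, Leptochloa chinensis, Cyperus difformis and rice were sown into it and grown in a greenhouse at 25–30 °C.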

For data set [6], the system named is Avena fatua. Put plainly: Test Example 4: herbicidal effect by soil treatment (symbol I). The following applies: application herbicide amount 320 g/ha. An outline of the steps: (§2)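 Seeds were sown in sterilized diluvial soil, covered with about 1.5 cm of soil, and the soil surface was sprayed with a water-diluted emulsion of the compound at a predetermined rate. Plants grew in a greenhouse at 25° C. to 30° C.; effects were scored visually 3 weeks after application.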

In data set [7] the test system is Alopecurus myosuroides. The experiment in a line: Test Example 4: herbicidal effect by soil treatment (symbol J). The settings on record: application herbicide amount 320 g/ha. The method in brief: as §2
The subject of data set [8] is Abutilon theophrasti. Put plainly: Test Example 4: herbicidal effect by soil treatment (symbol M). The settings on record: application herbicide amount 320 g/ha. An outline of the steps:
as §2

The subject of data set [9] is Amaranthus retroflexus. Put plainly: Test Example 4: herbicidal effect by soil treatment (symbol N). The following applies: application herbicide amount 320 g/ha. The method in brief:
as §2

The test system of data set [10] is soybean. Put plainly: Test Example 4: effect on crop by soil treatment (symbol d). The settings on record: application herbicide amount 320 g/ha. The method in brief:
(§3)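 Diluvial soil (sterilized) in boxes; seeds placed spot-wise alongside weed species; ~1.5 cm covering soil. Greenhouse, 25–30° C.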

Data set [11] has as its system rapeseed. The experiment in a line: Test Example 4: effect on crop by soil treatment (symbol g). The following applies: application herbicide amount 320 g/ha. The method in brief: as §3
The test system of data set [12] is Digitaria ciliaris. Put plainly: Test Example 5: herbicidal effect by foliage application, plastic box (symbol F). The settings on record: 320 g/ha, 3 weeks after application. An outline of the steps: (§4)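 Greenhouse foliar test: seedlings at 14 days, grown 25° C. to 30° C. in sterilized diluvial soil; compound applied as an aqueous dilution of an emulsion; response read 3 weeks after spraying.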

For data set [13], the system named is Echinochloa crus-galli var. crus-galli. The experiment in a line: Test Example 5: herbicidal effect by foliage application, plastic box (symbol H). The following applies: 320 g/ha, 3 weeks after application. An outline of the steps:
as §4

For the molecule `Cc1cc(C)c(C2=C(O)CC(CC(=O)C(C)C)C2=O)c(C)c1` (stereo not drawn) [2-016], the “Herbicidal effect grade, A: Echinochloa oryzacola Vasing.” value in data set [1] is 4 (Herbicidal ratio of 70% or higher and lower than 90%). In [2], the “Herbicidal effect grade, B: Scirpus juncoides” value (shortened to “Herbicidal effect grade, B”) is reported as 0 (Herbicidal ratio of 5% or lower (almost no effect)). In data set [3], the “Effect grade on crop, a: transplanted rice plant” value (from here on “Effect grade on crop”) is 4 (Herbicidal ratio of 70% or higher and lower than 90%). Further, in data set [4], the “Herbicidal effect grade, C: Monochoria vaginalis” value is on record as 0 (Herbicidal ratio of 5% or lower (almost no effect)). The “effect on crop b (directly sowed rice plant), grade 0-5” value (“effect on crop b” for short) in data set [5] is on record as 5 (Herbicidal ratio of 90% or more (almost completely withered)). In addition, in data set [6], the “I: Avena fatua, herbicidal effect grade” value is recorded as 0 (Herbicidal ratio of 5% or lower (almost no effect)). Further, the “J: Alopecurus myosuroides, herbicidal effect grade” value in data set [7] was 4 (Herbicidal ratio of 70% or higher and lower than 90%). Moreover, the “M: Abutilon theophrasti, herbicidal effect grade” value in data set [8] was 0 (Herbicidal ratio of 5% or lower (almost no effect)). Besides, the “N: Amaranthus retroflexus, herbicidal effect grade” value in data set [9] is 0 (Herbicidal ratio of 5% or lower (almost no effect)). Further, the “d: soybean, effect on crop grade” value in data set [10] is 0 (Herbicidal ratio of 5% or lower (almost no effect)). In data set [11], the “g: rapeseed, effect on crop grade” value is 2 (Herbicidal ratio of 20% or higher and lower than 40%). The “F: Digitaria ciliaris, herbicidal effect grade” value (shortened to “F: Digitaria ciliaris”) in data set [12] was 5 (Herbicidal ratio of 90% or more (almost completely withered)). For the same molecule, in data set [13], the “H: Echinochloa crus-galli var. crus-galli, herbicidal effect grade” value is 5 (Herbicidal ratio of 90% or more (almost completely withered)).

Take `CON=C(C)CC1CC(OC(=O)OC)=C(c2c(C)cc(C)cc2C)C1=O` (stereo not drawn) [1-014]: the “Herbicidal effect grade, A: Echinochloa oryzacola Vasing.” value in [1] is reported as 5 (Herbicidal ratio of 90% or more (almost completely withered)). Also, in [2], the “Herbicidal effect grade, B” value is 5 (Herbicidal ratio of 90% or more (almost completely withered)). Besides, in [3], the “Effect grade on crop” value is reported as 5 (Herbicidal ratio of 90% or more (almost completely withered)). In addition, the “Herbicidal effect grade, C: Monochoria vaginalis” value in data set [4] was 3 (Herbicidal ratio of 40% or higher and lower than 70%). Also, the “effect on crop b” value in data set [5] is recorded as 5 (Herbicidal ratio of 90% or more (almost completely withered)). In addition, in data set [6], the “I (Avena fatua) herbicidal effect grade” value was 5 (Herbicidal ratio of 90% or more (almost completely withered)). Further, in data set [7], the “J (Alopecurus myosuroides) herbicidal effect grade” value is given as 5 (Herbicidal ratio of 90% or more (almost completely withered)). Besides, in data set [8], the “M (Abutilon theophrasti) herbicidal effect grade” value is 4 (Herbicidal ratio of 70% or higher and lower than 90%). The “d (soybean) effect on crop grade” value in data set [10] was 4 (Herbicidal ratio of 70% or higher and lower than 90%). Besides, the “F: Digitaria ciliaris” value in data set [12] is 5 (Herbicidal ratio of 90% or more (almost completely withered)). Further, in data set [13], the “H: Echinochloa crus-galli var. crus-galli, herbicidal effect grade” value is 5 (Herbicidal ratio of 90% or more (almost completely withered)).

As for `CON=C(C)CC1CC(O)=C(c2c(C)cc(-n3cc(Cl)cn3)cc2C)C1=O` (mixture of isomers) [6-004], in data set [1], the “Herbicidal effect grade, A: Echinochloa oryzacola Vasing.” value is given as 5 (Herbicidal ratio of 90% or more (almost completely withered)). The “Herbicidal effect grade, B” value in data set [2] was 5 (Herbicidal ratio of 90% or more (almost completely withered)). Also, in data set [3], the “Effect grade on crop” value is 5 (Herbicidal ratio of 90% or more (almost completely withered)). Besides, the “effect on crop b” value in data set [5] is given as 5 (Herbicidal ratio of 90% or more (almost completely withered)). In addition, the “I: Avena fatua, herbicidal effect grade” value in data set [6] was 4 (Herbicidal ratio of 70% or higher and lower than 90%). Moreover, the “J: Alopecurus myosuroides, herbicidal effect grade” value in [7] is 5 (Herbicidal ratio of 90% or more (almost completely withered)). For the same molecule, in data set [8], the “M: Abutilon theophrasti, herbicidal effect grade” value was 0 (Herbicidal ratio of 5% or lower (almost no effect)). The “N: Amaranthus retroflexus, herbicidal effect grade” value in data set [9] was 4 (Herbicidal ratio of 70% or higher and lower than 90%). In addition, the “d: soybean, effect on crop grade” value in data set [10] is given as 0 (Herbicidal ratio of 5% or lower (almost no effect)). Besides, the “g: rapeseed, effect on crop grade” value in [11] is 4 (Herbicidal ratio of 70% or higher and lower than 90%). Further, the “F: Digitaria ciliaris” value in data set [12] is listed as 5 (Herbicidal ratio of 90% or more (almost completely withered)). Moreover, the “H: Echinochloa crus-galli var. crus-galli, herbicidal effect grade” value in data set [13] is listed as 5 (Herbicidal ratio of 90% or more (almost completely withered)).
